# Measured values as given in US4568690A, “1-Methyl-5-p-methylbenzoylpyrrole-2-acetamidoacetanilides with antiinflammatory, analgesic, antipyretic and anti-platelet aggregant activity” (priority 1983, dated 1986).
# Like-named read-outs stand apart in the source and are kept apart here.
# What was measured:
# [1] = tested on: carragenin-induced edema; experiment: carragenin-induced edema test (antinflammatory activity); assay type: in vivo, rats
# Method: (§1) Preparations of the compound were administered orally and/or parenterally in a suspension in 0.59% carboxymethylcellulose in pH neutral physiological saline.
# This effect was evaluated with an experimental model reproducing actue inflammation in rats: the carragenin-induced edema test was used, according to the method of C. A. Winter (G. Pharmac. Exp. Ther., 141, 369 (1963)). Table III reports the compounds tested, their concentrations, administration routes and relative percent edema inhibition.
# [2] = tested on: p-phenylquinone-induced writhing; experiment: p-phenylquinone-induced writhing test (analgesic activity); assay type: in vivo; conditions: an hour after administration
# Method: as §1
# The determination was made an hour after administration of the product. The inhibitory effect on abdominal contractions induced by phenyl-p-quinone was calculated as follows: [formula]
# Table IV reports the doses, the administration routes and their effectiveness expressed as % protection.
# [3] = tested on: hyperthermia induced by dry purified beer yeast; experiment: antipyretic activity, beer yeast-induced hyperthermia; assay type: in vivo, Wistar strain male albino rats
# Method: as §1
# This effect was evaluated by inducing hyperthermia in Wistar strain male albino rats with an average weight of 250±10 g, injecting them intraperitoneally with a 10% suspension of dry purified beer yeast (Carlo Erba) in a volume of 10 ml/Kg of body weight, according to the method of S. Wong et al. (J. Pharmac. Exp. Ther., 185 (1), 127 (1973)).
# [4] = tested on: platelet aggregation (ADP-induced); experiment: in vitro anti-platelet aggregant activity (Born's method, ADP); assay type: cell-based, rat; conditions: Rattus norvegicus, Platelet, ADP 7.08 μmol/l, read-out: Inhibition % (platelet aggregation)
# Method: This activity was studied in vitro following Born's method (G. W. R. Born, Nature, 194, 937 (1962)) and inducing platelet aggregation with ADP. […] For the aggregation test, 0.2 ml of platelet rich plasma was mixed with a NaCl solution (0.9%) to which the test substance was added up to a final volume of 0.6 ml. Incubation was fixed at 3 minutes at 27° C. After aggregation was induced with ADP, the course of the aggregation was monitored continuously with an Elvi 840 Aggregometer (Elvi Logos--Milan). The antiaggregant effects were determined by the difference in the light transmission of the sample with respect to that of the ADP control. The test compound was compared with aspirin, which has known antiplatelet aggregant activity (H. J. Weiss et al., J. Clin. Inv., 47, 2169 (1968); Platelet Aggregation and Drugs, edited by L. Caprino and E. C. Rossi, page 235, Academic Press (London), 1974).
# Table VI reports the inhibition of platelet aggregation with various doses of the compounds tested at a constant ADP concentration.
# [5] = in vivo; conditions: mouse
# [6] = in vivo; conditions: rat
# [7] = tested on: gastric mucosa; experiment: gastric tolerance (ulcerogenic activity); conditions: orally, four consecutive days; for Incidence % / 10: groups of 10 animals; for Mean number severity: severity scale 0-5
# Method: This was studied by testing ulcerogenic activity in male Wistar rats weighing an average of 180 g, using groups of 10 animals each. Three doses of each substance were used, and one group of animals was treated with vehicle only, in a volume of 10 ml/g body weight. Each dose was administered orally for four consecutive days, and the rats were killed on the fifth day and autopsied. The ulcerogenic effect was evaluated on the following scale:
# (1) each hemorrhage point >1 mm was evaluated as 1 lesion
# (2) the hemorrhage points <1 were counted as follows:
# (b) from 1 to 19 2 lesions
# (c) from 1 to 29 3 lesions
# (2) gastric mucosa irritation
# (3) hemorrhage points <1 mm
# (4) hemorrhage points from 1 to 3 mm
# (5) hemorrhage points >3 mm
# This scale was used to calculate the following index of gastric damage: [formula]
# [8] = tested on: mouse; conditions: in vivo
compound,measurement,setting,value
Cc1ccc(C(=O)c2ccc(CC(=O)NCC(=O)Nc3cccc(Cl)c3)n2C)cc1 [Compound 1b],Oedema inhibition %,"[1]; i.p., 10 mg/kg, 3 h",30.1%
same,Oedema inhibition %,"[1]; i.p., 10 mg/kg, 6 h",29.0%
same,Oedema inhibition %,"[1]; i.p., 10 mg/kg, 24 h",0.0%
same,Oedema inhibition %,"[1]; i.p., 50 mg/kg, 3 h",49.2%
same,Oedema inhibition %,"[1]; i.p., 50 mg/kg, 6 h",43.5%
same,Oedema inhibition %,"[1]; i.p., 50 mg/kg, 24 h",2.3%
same,Oedema inhibition %,"[1]; i.p., 100 mg/kg, 3 h",65.4%
same,Oedema inhibition %,"[1]; i.p., 100 mg/kg, 6 h",62.0%
same,Oedema inhibition %,"[1]; i.p., 100 mg/kg, 24 h",16.4%
same,Oedema inhibition %,"[1]; os, 10 mg/kg, 3 h",29.8%
same,Oedema inhibition %,"[1]; os, 10 mg/kg, 6 h",22.3%
same,Oedema inhibition %,"[1]; os, 10 mg/kg, 24 h",0.0%
same,Oedema inhibition %,"[1]; os, 50 mg/kg, 3 h",47.3%
same,Oedema inhibition %,"[1]; os, 50 mg/kg, 6 h",44.1%
same,Oedema inhibition %,"[1]; os, 50 mg/kg, 24 h",0.0%
same,Oedema inhibition %,"[1]; os, 100 mg/kg, 3 h",61.9%
same,Oedema inhibition %,"[1]; os, 100 mg/kg, 6 h",59.8%
same,Oedema inhibition %,"[1]; os, 100 mg/kg, 24 h",15.3%
same,Protection %,"[2]; i.p., 5 mg/kg",18.7%
same,Protection %,"[2]; i.p., 10 mg/kg",42.3%
same,Protection %,"[2]; i.p., 20 mg/kg",69.5%
same,Protection %,"[2]; os, 5 mg/kg",16.1%
same,Protection %,"[2]; os, 10 mg/kg",36.2%
same,Protection %,"[2]; os, 20 mg/kg",69.1%
same,Temperature decrease %,"[3]; i.p., 50 mg/kg, 1 h",16.0%
same,Temperature decrease %,"[3]; i.p., 50 mg/kg, 2 h",19.3%
same,Temperature decrease %,"[3]; i.p., 50 mg/kg, 3 h",33.0%
same,Temperature decrease %,"[3]; i.p., 75 mg/kg, 1 h",26.0%
same,Temperature decrease %,"[3]; i.p., 75 mg/kg, 2 h",36.1%
same,Temperature decrease %,"[3]; i.p., 75 mg/kg, 3 h",40.0%
same,Temperature decrease %,"[3]; i.p., 100 mg/kg, 1 h",39.1%
same,Temperature decrease %,"[3]; i.p., 100 mg/kg, 2 h",40.0%
same,Temperature decrease %,"[3]; i.p., 100 mg/kg, 3 h",30.5%
same,Temperature decrease %,"[3]; os, 50 mg/kg, 1 h",19.0%
same,Temperature decrease %,"[3]; os, 50 mg/kg, 6 h",19.5%
same,Temperature decrease %,"[3]; os, 50 mg/kg, 24 h",29.8%
same,Temperature decrease %,"[3]; os, 75 mg/kg, 1 h",20.0%
same,Temperature decrease %,"[3]; os, 75 mg/kg, 6 h",30.0%
same,Temperature decrease %,"[3]; os, 75 mg/kg, 24 h",40.1%
same,Temperature decrease %,"[3]; os, 100 mg/kg, 1 h",30.0%
same,Temperature decrease %,"[3]; os, 100 mg/kg, 6 h",33.1%
same,Temperature decrease %,"[3]; os, 100 mg/kg, 24 h",31.2%
same,inhibition at 1 µg/mL,[4]; 1 γ/ml,25%
same,inhibition at 5 µg/mL,[4]; 5 γ/ml,100%
same,inhibition at 10 µg/mL,[4]; 10 γ/ml,100%
same,LD50,[5]; ip,1370 mg/kg
same,LD50,[5]; po,> 1500 mg/kg
same,LD50,[6]; ip,1200 mg/kg
same,LD50,[6]; po,> 1420 mg/kg
same,Index gastric damage,[7]; 50 mg/kg,8
same,"Index gastric damage, signed figure (untitled; difference from Carrier index 8)",[7]; 50 mg/kg,+0
same,Mean number lesions,[7]; 50 mg/kg,1
same,Incidence % / 10,[7]; 50 mg/kg,5 %/10
same,Mean number severity,[7]; 50 mg/kg,2
same,Index gastric damage,[7]; 100 mg/kg,11
same,"Index gastric damage, signed figure (untitled; difference from Carrier index 8)",[7]; 100 mg/kg,+3
same,Mean number lesions,[7]; 100 mg/kg,2
same,Incidence % / 10,[7]; 100 mg/kg,7 %/10
same,Mean number severity,[7]; 100 mg/kg,2
same,Index gastric damage,[7]; 200 mg/kg,14
same,"Index gastric damage, signed figure (untitled; difference from Carrier index 8)",[7]; 200 mg/kg,+6
same,Mean number lesions,[7]; 200 mg/kg,3
same,Incidence % / 10,[7]; 200 mg/kg,8 %/10
same,Mean number severity,[7]; 200 mg/kg,3
COc1ccc(OC)c(NC(=O)CNC(=O)Cc2ccc(C(=O)c3ccc(C)cc3)n2C)c1 [Compound 1g],Oedema inhibition %,"[1]; i.p., 10 mg/kg, 3 h",35.6%
same,Oedema inhibition %,"[1]; i.p., 10 mg/kg, 6 h",37.0%
same,Oedema inhibition %,"[1]; i.p., 10 mg/kg, 24 h",0.0%
same,Oedema inhibition %,"[1]; i.p., 50 mg/kg, 3 h",50.1%
same,Oedema inhibition %,"[1]; i.p., 50 mg/kg, 6 h",50.0%
same,Oedema inhibition %,"[1]; i.p., 50 mg/kg, 24 h",6.1%
same,Oedema inhibition %,"[1]; i.p., 100 mg/kg, 3 h",71.0%
same,Oedema inhibition %,"[1]; i.p., 100 mg/kg, 6 h",71.5%
same,Oedema inhibition %,"[1]; i.p., 100 mg/kg, 24 h",22.9%
same,Oedema inhibition %,"[1]; os, 10 mg/kg, 3 h",30.4%
same,Oedema inhibition %,"[1]; os, 10 mg/kg, 6 h",37.9%
same,Oedema inhibition %,"[1]; os, 10 mg/kg, 24 h",1.2%
same,Oedema inhibition %,"[1]; os, 50 mg/kg, 3 h",51.4%
same,Oedema inhibition %,"[1]; os, 50 mg/kg, 6 h",49.0%
same,Oedema inhibition %,"[1]; os, 50 mg/kg, 24 h",7.9%
same,Oedema inhibition %,"[1]; os, 100 mg/kg, 3 h",72.3%
same,Oedema inhibition %,"[1]; os, 100 mg/kg, 6 h",70.0%
same,Oedema inhibition %,"[1]; os, 100 mg/kg, 24 h",25.1%
same,Protection %,"[2]; i.p., 5 mg/kg",23.0%
same,Protection %,"[2]; i.p., 10 mg/kg",56.9%
same,Protection %,"[2]; i.p., 20 mg/kg",74.2%
same,Protection %,"[2]; os, 5 mg/kg",20.1%
same,Protection %,"[2]; os, 10 mg/kg",50.3%
same,Protection %,"[2]; os, 20 mg/kg",76.0%
same,Temperature decrease %,"[3]; i.p., 50 mg/kg, 1 h",26.0%
same,Temperature decrease %,"[3]; i.p., 50 mg/kg, 2 h",27.0%
same,Temperature decrease %,"[3]; i.p., 50 mg/kg, 3 h",26.0%
same,Temperature decrease %,"[3]; i.p., 75 mg/kg, 1 h",32.1%
same,Temperature decrease %,"[3]; i.p., 75 mg/kg, 2 h",34.5%
same,Temperature decrease %,"[3]; i.p., 75 mg/kg, 3 h",40.0%
same,Temperature decrease %,"[3]; i.p., 100 mg/kg, 1 h",39.1%
same,Temperature decrease %,"[3]; i.p., 100 mg/kg, 2 h",46.0%
same,Temperature decrease %,"[3]; i.p., 100 mg/kg, 3 h",41.0%
same,Temperature decrease %,"[3]; os, 50 mg/kg, 1 h",17.1%
same,Temperature decrease %,"[3]; os, 50 mg/kg, 6 h",27.1%
same,Temperature decrease %,"[3]; os, 50 mg/kg, 24 h",29.1%
same,Temperature decrease %,"[3]; os, 75 mg/kg, 1 h",19.6%
same,Temperature decrease %,"[3]; os, 75 mg/kg, 6 h",30.1%
same,Temperature decrease %,"[3]; os, 75 mg/kg, 24 h",43.1%
same,Temperature decrease %,"[3]; os, 100 mg/kg, 1 h",23.1%
same,Temperature decrease %,"[3]; os, 100 mg/kg, 6 h",33.0%
same,Temperature decrease %,"[3]; os, 100 mg/kg, 24 h",42.1%
same,DL50 (LD50),[8]; ip,1200 mg/kg
same,DL50 (LD50),[8]; po,1470 mg/kg
same,LD50,[5]; ip,1430 mg/kg
same,LD50,[5]; po,> 1500 mg/kg
same,Index gastric damage,[7]; 50 mg/kg,8
same,"Index gastric damage, signed figure (untitled; difference from Carrier index 8)",[7]; 50 mg/kg,+0
same,Mean number lesions,[7]; 50 mg/kg,1
same,Incidence % / 10,[7]; 50 mg/kg,6 %/10
same,Mean number severity,[7]; 50 mg/kg,1
same,Index gastric damage,[7]; 100 mg/kg,11
same,"Index gastric damage, signed figure (untitled; difference from Carrier index 8)",[7]; 100 mg/kg,+3
same,Mean number lesions,[7]; 100 mg/kg,2
same,Incidence % / 10,[7]; 100 mg/kg,7 %/10
same,Mean number severity,[7]; 100 mg/kg,2
same,Index gastric damage,[7]; 200 mg/kg,14
same,"Index gastric damage, signed figure (untitled; difference from Carrier index 8)",[7]; 200 mg/kg,+6
same,Mean number lesions,[7]; 200 mg/kg,3
same,Incidence % / 10,[7]; 200 mg/kg,9 %/10
same,Mean number severity,[7]; 200 mg/kg,2
